Measurements: patent US20250268873A1, “COMBINATION OF DUAL ATM AND DNA-PK INHIBITORS AND IMMUNOTHERAPEUTIC AGENTS FOR USE IN CANCER THERAPY” (XRAD THERAPEUTICS, INC., priority 2021, published 2025)

Test system: FADU tumors
Assay: In vivo tumor growth delay study, FADU subcutaneous human xenograft mouse model
Description: Female NCr nu/nu mice (Crl:NU(NCr)-Foxn1nu, Strain 490) were obtained from Charles River at 5-6 weeks of age.
FADU or MDA-MB-231 cells were harvested during log phase growth for in vivo implantation. The resuspended cells were washed three times in phosphate buffered saline (PBS) before preparing the working dilution in PBS. FADU cells were diluted to 1×10^7 cells/mL and MDA-MB-231 cells were diluted to 5×10^7 cells/mL. Each mouse was injected subcutaneously in the right flank with 100 μL of the cellular suspension. Tumor growth was monitored until the tumors reached a target volume of at least 100 mm^3, at which point mice were randomly stratified into four treatment groups.
Following implantation of the tumor cell lines, mice were monitored once weekly for tumor development. Upon detection, tumors were measured in two dimensions using digital calipers. Tumors were treated after reaching at least 100 mm^3 and were measured two to three times weekly following enrollment in one of the treatment groups. The study endpoint was defined as tumor quintupling from the volume at time of treatment.
The vehicle used in this study was 0.5% (Hydroxypropyl)methyl cellulose (HPMC) and 0.2% Tween80 dissolved in deionized water. The pH of the vehicle was adjusted to 7.0-8.0 and the vehicle was stored at 4° C. On each day of in vivo treatment an appropriate mass of test compound was added to the vehicle at room temperature. The mixture was vortexed as necessary to generate a final concentration of 1.6 mg/mL.
In vivo tumor growth delay study was performed as follows. Following implantation of the tumor cell lines, mice were monitored once weekly for tumor development. Upon development of a tumor measuring at least 100 mm^3, tumor-bearing mice were stratified to one of 4 groups, utilizing 5 mice per group. Tumor volumes were between 100 and 500 mm^3. Vehicle or compound 569 (10 mg/kg) were administered by oral gavage once daily for three consecutive days (qd×3), alone or in combination with focal radiation. The delivered volume of vehicle or compound 569 was adjusted based on body weight of the individual animals. […]
Prism (GraphPad) was used for graphical presentations. […] In order to adjust for the differing tumor sizes at the start of treatment, the relative tumor volume was calculated by dividing the tumor volume at each time point by the volume at baseline. […] When an animal exited the study due to tumor quintupling, the final tumor volume recorded for the animal was included with the data used to calculate the median volume at subsequent time points. […] Differences in quintupling-free survival between the four treatment groups were evaluated with a log-rank test. […]

In the case of `CC(C)NCCOc1ncc(-c2cc3c4c(cnc3cc2F)N(C)C(=O)C42CCC2)cc1NS(C)(=O)=O` [Compound 569, N-(5-(7′-Fluoro-3′-methyl-2′-oxo-2′,3′-dihydrospiro[cyclobutane-1,1′-pyrrolo[2,3-c]quinolin]-8′-yl)-2-(2-(isopropylamino)ethoxy)pyridin-3-yl)methanesulfonamide], the “median time to endpoint (tumor quintupling)” value (Group 2: Compound 569 10 mg/kg po qd×3 alone) is reported as 14 days, the “tumor growth curves and quintupling-free survival” value (Group 2: Compound 569 10 mg/kg qd×3 alone vs vehicle (Group 1)) is reported as “nearly identical to those for Group 1” and the “median time to endpoint (tumor quintupling)” value (Group 4: compound 569 10 mg/kg 45 min prior to 3 Gy focal radiation, qd×3) is reported as 42 days. For the same molecule, the “overall survival (quintupling-free)” value (Group 4: compound 569 + 3 Gy qd×3, P<0.01, logrank) was “significantly improved compared to Group 1, Group 2, and Group 3”.
